Here are results for ten compounds from ChEMBL document CHEMBL1201862, “PubChem BioAssay data set” (2004).

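Results reflect a 48-hour exposure of cells in 96-well plates to compound at five concentrations. GI50 = concentration required for 50% inhibition of growth.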 The source made the active and inactive calls. Rule as the data show it: active = GI50 up to about 1.1 µM and inactive = higher. Bounds are passed on as bounds.

Some test systems named below: SK-MEL-5; SK-MEL-28; LOX IMVI; COLO 205; SK-OV-3; ACHN; BT-549; SF-268; SK-MEL-2; UACC-257; KM12; IGROV-1; MDA-MB-231; SF-295; PC-3; NCI-H23; A498; HT-29; SW-620.
Common to all, as to assay: DTP human tumour cell line panel, 48 h

In general, GI50 refers to the concentration that inhibits growth by half. Regarding `S=C(CSc1ccccc1)Nc1cccc2ccccc12`, the GI50 is 18.5 µM (inactive) in the test with SK-MEL-5; > 100 µM (inactive) with SK-MEL-28; 50.6 µM (inactive) in the test with LOX IMVI; 16.4 µM (inactive) in the test on COLO 205; > 100 µM (inactive) in the test with SK-OV-3; 39.7 µM (inactive) in the test with ACHN. The GI50 was 51.6 µM (inactive) with BT-549; 61.1 µM (inactive) in the test with SF-268; 24.3 µM (inactive) with SK-MEL-2; 22.3 µM (inactive) in the test on UACC-257; 40.8 µM (inactive) in the test on KM12; 72.8 µM (inactive) in the test on IGROV-1. Further, the GI50 with MDA-MB-231 was 80.2 µM (inactive); in the test with SF-295 it was 23.8 µM (inactive); with PC-3, 35.6 µM (inactive); in the test with NCI-H23, 41.4 µM (inactive); in the test on A498 it was 23.1 µM (inactive); in the test with HT-29 it was 43.1 µM (inactive). Moreover, the GI50 in the test on SW-620 was 55 µM (inactive).

Turning to `Cc1c2ncccc2c(C)c2c1[nH]c1ccc(O)cc12`, the GI50 in the test with SK-MEL-5 is 7.24 µM (inactive); in the test with SK-MEL-28, 13.5 µM (inactive); in the test on LOX IMVI, 1.71 µM (inactive); in the test with COLO 205, 10.4 µM (inactive); with SK-OV-3, 3.38 µM (inactive); with ACHN it was 2.02 µM (inactive). For the same compound, the GI50 with BT-549 is 13.7 µM (inactive); in the test with SF-268, 4.94 µM (inactive); in the test on SK-MEL-2, 18.5 µM (inactive); in the test on UACC-257, 11.5 µM (inactive); in the test with KM12, 3.6 µM (inactive); in the test with IGROV-1, 3.89 µM (inactive). Further, the GI50 in the test on MDA-MB-231 was 4.93 µM (inactive); in the test with SF-295, 2.48 µM (inactive); in the test on PC-3 it was 2.76 µM (inactive); with NCI-H23 it was 6.58 µM (inactive); in the test with A498, 13.3 µM (inactive); in the test with HT-29, 6.87 µM (inactive). For the same compound, the GI50 in the test on SW-620 is 2.8 µM (inactive).

As to `Cc1ccc(-c2cc(-c3ccc(Cl)cc3)nc(/N=C3\C(=O)N(CN(C)C)c4ccccc43)n2)cc1`, the GI50 in the test with SK-MEL-5 is 48.4 µM (inactive); in the test with SK-MEL-28, > 100 µM (inactive); with LOX IMVI it was 24.2 µM (inactive); with COLO 205 it was 77.8 µM (inactive); in the test on SK-OV-3, > 100 µM (inactive); in the test with ACHN it was 64.1 µM (inactive). Further, the GI50 in the test with BT-549 was 78.5 µM (inactive); in the test with SF-268 it was 89.9 µM (inactive); in the test with SK-MEL-2, 31.4 µM (inactive); in the test on UACC-257 it was 24.8 µM (inactive); in the test on KM12, 64.6 µM (inactive); in the test on IGROV-1, 53.5 µM (inactive). Further, the GI50 is > 100 µM (inactive) in the test with MDA-MB-231; > 100 µM (inactive) in the test with SF-295; 50.9 µM (inactive) with PC-3; 33.6 µM (inactive) with NCI-H23; > 100 µM (inactive) in the test on A498; 46.1 µM (inactive) in the test with HT-29. In addition, the GI50 in the test on SW-620 is 12.9 µM (inactive).

As to `N=C(CC(=O)Nc1ccccn1)c1ccccc1`, the GI50 in the test on SK-MEL-5, in the test with SK-MEL-28, in the test on LOX IMVI, in the test with COLO 205, in the test on SK-OV-3 and in the test on ACHN was > 100 µM (inactive) each time. Further, the GI50 in the test on BT-549, in the test with SF-268, with SK-MEL-2, with UACC-257, in the test with KM12 and with IGROV-1 was > 100 µM (inactive) in each case. In addition, the GI50 in the test on MDA-MB-231, in the test with SF-295, in the test with PC-3, in the test with NCI-H23, in the test with A498 and in the test with HT-29 was > 100 µM (inactive) throughout. For the same compound, the GI50 in the test with SW-620 was > 100 µM (inactive).

On to `C=C1C(=O)O[C@@H]2C[C@@H](C)[C@@H]3[C@@H](OC4OC(COC(C)=O)C(O)C(O)C4O)CC(=O)[C@@]3(C)C[C@H]12` (stereo not given in full), for which the GI50 in the test with SK-MEL-5 was 1.74 µM (inactive); with SK-MEL-28, 2.15 µM (inactive); with LOX IMVI, 0.63 µM (active); with COLO 205, 0.703 µM (active); in the test on SK-OV-3, 19.1 µM (inactive); with ACHN, 0.508 µM (active). The GI50 was 1.34 µM (inactive) with BT-549; 9.77 µM (inactive) in the test with SF-268; 7.5 µM (inactive) in the test with SK-MEL-2; 1.68 µM (inactive) with UACC-257; 11 µM (inactive) with KM12; 2.17 µM (inactive) in the test with IGROV-1. For the same compound, the GI50 was 4.36 µM (inactive) in the test with MDA-MB-231; 17.3 µM (inactive) with SF-295; 10.3 µM (inactive) in the test on PC-3; 12.5 µM (inactive) in the test on NCI-H23; 15.5 µM (inactive) in the test on A498; 1.22 µM (inactive) with HT-29. In addition, the GI50 in the test on SW-620 was 0.574 µM (active).

On to `O=CC(O)C(O)C(O)C1CNC(=S)O1` (stereo not given), for which the GI50 in the test with SK-MEL-5, in the test with SK-MEL-28, with LOX IMVI, in the test on COLO 205, with SK-OV-3 and in the test on ACHN was > 100 µM (inactive) in each case. For the same compound, the GI50 with BT-549, in the test on SF-268, with SK-MEL-2, in the test on UACC-257, with KM12 and in the test with IGROV-1 was > 100 µM (inactive) in each case. In addition, the GI50 in the test on MDA-MB-231, in the test on SF-295, in the test on PC-3, in the test with NCI-H23, with A498 and in the test with HT-29 was > 100 µM (inactive) each time. In addition, in the test with SW-620, the GI50 was > 100 µM (inactive).

With `COc1cccc2nc3c(C(=O)NCCN(C)C)cccc3cc12`, the GI50 with SK-MEL-5 is 1.41 µM (inactive); in the test on SK-MEL-28, 2.63 µM (inactive); in the test with LOX IMVI, 0.771 µM (active); in the test on COLO 205, 1.13 µM (inactive); in the test on SK-OV-3, 1.43 µM (inactive); in the test on ACHN it was 0.655 µM (active). Moreover, the GI50 was 2.57 µM (inactive) in the test with BT-549; 3.24 µM (inactive) in the test on SF-268; 4.13 µM (inactive) with SK-MEL-2; 1.92 µM (inactive) in the test with UACC-257; 2.3 µM (inactive) in the test with KM12; 1.88 µM (inactive) in the test with IGROV-1. The GI50 was 2.37 µM (inactive) in the test with MDA-MB-231; 2.12 µM (inactive) in the test with SF-295; 2.34 µM (inactive) with PC-3; 1.17 µM (inactive) in the test with NCI-H23; 0.307 µM (active) in the test with A498; 1.21 µM (inactive) in the test with HT-29. In the test on SW-620, the 50% growth inhibitory concentration (GI50) was 1.09 µM (active).

Regarding `C[C@@H]1C[C@H]2[C@@H]3CCC4=CC(=O)C=C[C@]4(C)[C@@]3(Cl)[C@@H](Cl)C[C@]2(C)[C@@]1(O)C(=O)COP(=O)(O)O`, the GI50 with SK-MEL-5, in the test with SK-MEL-28, in the test with LOX IMVI, in the test with COLO 205, with SK-OV-3 and in the test with ACHN was > 100 µM (inactive) throughout. In addition, the GI50 is 52.1 µM (inactive) in the test with BT-549; > 100 µM (inactive) in the test on SF-268; > 100 µM (inactive) with SK-MEL-2; > 100 µM (inactive) in the test with UACC-257; > 100 µM (inactive) in the test on KM12; > 100 µM (inactive) in the test on IGROV-1. The GI50 in the test with MDA-MB-231, with SF-295, in the test with PC-3, in the test on NCI-H23, in the test on A498 and with HT-29 was > 100 µM (inactive) throughout. Besides, the GI50 with SW-620 is > 100 µM (inactive).

Take `COC(=O)[C@@H]1COC(=O)N1`: the GI50 in the test with SK-MEL-5, in the test with SK-MEL-28, in the test on LOX IMVI, with COLO 205, in the test on SK-OV-3 and in the test with ACHN was > 100 µM (inactive) each time. The GI50 in the test with BT-549, with SF-268, in the test on SK-MEL-2, in the test on UACC-257, with KM12 and with IGROV-1 was > 100 µM (inactive) throughout. Besides, the GI50 with MDA-MB-231, in the test with SF-295, in the test on PC-3, with NCI-H23, in the test on A498 and in the test with HT-29 was > 100 µM (inactive) in each case. In addition, the GI50 with SW-620 was > 100 µM (inactive).

On to `CC(C)C12CCC3(CCC4C(C)(C(=O)O)CCCC4(C)C3C1)C(CN)C2` (stereo not given), for which the GI50 was 27.7 µM (inactive) in the test on SK-MEL-5; 39.7 µM (inactive) in the test on SK-MEL-28; 18.7 µM (inactive) in the test on LOX IMVI; 17.7 µM (inactive) in the test with COLO 205; > 100 µM (inactive) with SK-OV-3; 33.4 µM (inactive) in the test with ACHN. Besides, the GI50 was 38.5 µM (inactive) in the test with BT-549; 54.8 µM (inactive) in the test with SF-268; 42.9 µM (inactive) with SK-MEL-2; 40.1 µM (inactive) with UACC-257; 35.8 µM (inactive) in the test with KM12; 53.2 µM (inactive) in the test with IGROV-1. Besides, the GI50 in the test with MDA-MB-231 was 58.7 µM (inactive); in the test with SF-295, 51.2 µM (inactive); in the test on PC-3, 45.6 µM (inactive); in the test with NCI-H23, 25.6 µM (inactive); with A498 it was 28.8 µM (inactive); in the test on HT-29 it was 23.4 µM (inactive). For the same compound, the GI50 in the test on SW-620 was 35.4 µM (inactive).
